# Reference: EP0753513A2, “Optically active triazole derivative, process for producing the same, antifungal agent, and use thereof” (NIHON NOHYAKU CO., LTD., priority 1995, dated 1997)
# How the values were obtained:
# [1] = system: Candida albicans IFO1270; test: Growth inhibition of Candida albicans in Sabouraud's glucose broth (Test Example 1); format: cell-based; conditions: two days incubation at 37°C under shaking; for Growth inhibition ratio 0.1 µg/ml (%): 0.1 µg/ml test compound; for Growth inhibition ratio 10 µg/ml (%): 10 µg/ml test compound
# Protocol: Sabouraud's glucose broth (9.8 ml) was inoculated with 0.1 ml of Candida albicans IFO1270 (1.0×10^6 cells/ml). Then 0.1 ml of a solution of each test compound dissolved with dimethylsulfoxide in an appropriate concentration was added to give concentrations of 10 µg/ml and 0.1 µg/ml. Two days after incubating at 37°C under shaking, the growth inhibition ratio was measured. […]
# [2] = system: Candida albicans IFO1270; test: Survival of mice inoculated with Candida albicans after oral treatment (Test Example 2); format: in vivo; conditions: ddY mice; 0.5% aqueous CMC solution containing 0.02% of test compound, orally, 5 ml/kg once a day for 4 days; survival ratio on final day (10 days following inoculation)
# Protocol: ddY mice aged 6 weeks were divided into a control group having 10 mice and test groups each having 5 mice. After inoculating with 4 ml/kg of Candida albicans IFO1270 (2.5×10^7 cells/ml), which had been incubated on Sabouraud's glucose agar medium at 37°C for 2 hours, a 0.5% aqueous CMC solution (containing 10% of polyethylene glycol 400 and 0.1% of Tween 80) containing 0.02% of each test compound was orally administered to the mice in a dose of 5 ml/kg once a day for 4 days. The viable […] were counted for 10 days following the inoculation and the survival ratio on the final day was calculated. […]
smiles,measurement,setting,value
"CC(=O)N1CCN(c2ccc(OC[C@H]3CO[C@](Cn4ccnc4)(c4ccc(Cl)cc4Cl)O3)cc2)CC1 (relative stereo) [A, Cis-1-acetyl-4-[4-[[2-(2,4-dichlorophenyl)-2-(imidazol-1-ylmethyl)-1-3-oxolan-4-yl]methoxy]phenyl]piperazine, reference compound]",Growth inhibition ratio 0.1 µg/ml (%),[1],47%
same,Growth inhibition ratio 10 µg/ml (%),[1],59%
same,Survival ratio (%),[2],40%
"C[C@@H](Cc1ccc(C#N)cc1)[C@](O)(Cn1cncn1)c1ccc(F)cc1F [Compound 7, (2R,3S)-4-(4-cyanophenyl)-2-(2,4-difluorophenyl)-3-methyl-1-(1H-1,2,4-triazol-1-yl)butan-2-ol]",Growth inhibition ratio 0.1 µg/ml (%),[1],55%
same,Growth inhibition ratio 10 µg/ml (%),[1],70%
same,Survival ratio (%),[2],100%
"C[C@@H](Cc1ccc(F)cc1)[C@](O)(Cn1cncn1)c1ccc(F)cc1F [Compound 1, (2R,3S)-2-(2,4-difluorophenyl)-4-(4-fluorophenyl)-3-methyl-1-(1H-1,2,4-triazol-1-yl)butan-2-ol]",Growth inhibition ratio 0.1 µg/ml (%),[1],48%
same,Growth inhibition ratio 10 µg/ml (%),[1],64%
same,Survival ratio (%),[2],80%
"C[C@@H](Cc1ccc(F)cc1F)[C@](O)(Cn1cncn1)c1ccc(F)cc1F [Compound 2, (2R,3S)-2,4-bis(2,4-difluorophenyl)-3-methyl-1-(1H-1,2,4-triazol-1-yl)butan-2-ol]",Growth inhibition ratio 0.1 µg/ml (%),[1],51%
same,Growth inhibition ratio 10 µg/ml (%),[1],66%
same,Survival ratio (%),[2],60%
